In PMC12583827, “Harnessing microbial-derived metabolites in the urinary tract to prevent infection induced catheter encrustation” (Nature Communications, 2025):
Where a name gives a salt, the structure may show the parent alone.

Tests used:
P. mirabilis urease = conditions: 104V0, 106V15, HU1069 compared with HI4320
Procedure: Urease activity was measured as described previously in triplicate with at least three biological replicates[21]. Briefly, bacteria were cultured for ~18 h in LB broth, concentrated to an OD600 of 4, washed once in saline, and diluted (1:10 for P. mirabilis and 1:50 for P. stuartii and M. morganii) into candidate dampening metabolites in potassium phosphate buffer or human urine pH7 and supplemented with 500 mM urea and 0.01% phenol red. Bacterial suspensions were distributed into a 96-well plate, incubated at 37 °C with double-orbital shaking in a Synergy H1 plate reader (BioTek), and absorbance (OD562) was measured every 60 seconds for 180 minutes. Isogenic urease mutants (Supplementary Data 1) served as negative controls for P. mirabilis and P. stuartii and a vehicle control served as a negative control for M. morganii.

[1] = Buffering capacity assay (NaOH titration, phenol red); type: physicochemical; conditions: high concentrations of metabolite in potassium phosphate buffer with phenol red
Procedure: Known concentrations of sodium hydroxide were added to each well of a 96 well plate in combination with candidate dampening metabolite of interest buffered 1:10 in potassium phosphate buffer pH7. 0.01% phenol red was added to each well, and absorbance (OD562) was measured in a Synergy H1 plate reader (BioTek).

[2] = test system: P. mirabilis urease operon (ureABC, ureEDF); experiment: Real-time quantitative PCR of urease operon; type: cell-based, Proteus mirabilis
Procedure: P. mirabilis was cultured for ~18 h in LB broth and then sub cultured until it reached mid-log growth phase (OD600 0.2-0.5). Cultures were spun down to pellet at 10,000 rcf for 10 minutes and resuspended in saline to a final OD600 of 1.0. Cultures were then diluted 1:10 into dampening metabolites buffered 1:10 in potassium phosphate buffer pH7 and supplemented with 500 mM urea. P. mirabilis in potassium phosphate buffer without urea served as a negative control. Cultures were incubated in potassium phosphate buffer with and without dampening metabolites at 37 °C with shaking for 15 minutes. RNA isolation, cDNA synthesis and RT qPCR were performed as described previously. […] A RNA integrity analysis using agarose gel electrophoresis on extracted RNA was performed for all samples to confirm no change in transcript stability (Supplementary Fig 16A). The data were analyzed according to the Relative Quantification (RQ) method by Pfaffl et al. 2001[54] (See Supplementary Information).
168 Real-time quantitative PCR analysis. The data were analyzed according to the Relative
169 Quantification (RQ) method by Pfaffl et al 2001 (56) in which P. mirabilis potassium phosphate
170 buffer without urea was considered as the ‘Control’ and P. mirabilis in potassium phosphate
171 buffer supplemented with 500mM urea with and without candidate dampening compounds were
172 the ‘Sample.’ The full equation is below.
(E )ΔCPtarget (control−sample)
174 Relative Quantification Ratio = target Equation 2
(Ereference)ΔCPreference (control−sample)
176 In this equation, E refers to the primer efficiency of the target gene (Etarget, urease operon
177 subunits) or the reference gene (Ereference, rpoA), and CP refers to the Cycle Point, or the cycle
178 number at which the signal exceeds the threshold. […]
183 for whole genome sequencing on the Illumina NextSeq2000 platform. Read trimming, and run
184 analytics were performed using Trimmomatic v0.39.0 (62). The processed reads were assembled
185 using spades v3.15.5 (63) wrapped in Unicycler v0.5.0 (64, 65). Read mapping was done using […]

UTI MRSA urease = UTI MRSA urease activity assay; type: cell-based, Staphylococcus aureus; conditions: whole cell, urease broth
Procedure: 190 Omega and visualization was carried out using ESPript 3.0 (69), enabling comparison across
191 different clinical isolates. Urease genes, including the full operon from ureA to ureR, were
192 identified and extracted from the prokka annotated genomes. The extracted protein sequences
193 were subjected to sequence alignment using Clustal Omega and visualization was carried out
194 using ESPript 3.0 [8], enabling comparison across different clinical isolates.
195 UTI MRSA urease activity assay. The UTI MRSA urease assay was adapted from a recently-
196 published semi quantitative assay to measure urease activity in bacterial species with low overall
197 activity under standard conditions (50). Dampening metabolites were directly dissolved in urease
198 broth (1 g tryptone (RPI; CAS No. 91079-40-2), 1 g D(+)-glucose (RPI; CAS No. 50-99-7), 2 g
199 potassium phosphate monobasic anhydrous (VWR; Lot: 20C1356567), 5 g sodium chloride
201 of MilliQ water, pH 5.5, sterilized via autoclaving). UTI MRSA strains from overnight cultures
202 were harvested by centrifugation for 5 minutes at 10,000 g, washed with 1 volume of 1X
203 Phosphate Buffered Saline (PBS), and resuspended in urease broth. Bacterial cultures were […]
205 measured at 415 nm, 560 nm, and 600 nm every 20 mins for 24 hours, shaking at 37°C using a
206 BioTek Synergy|H1 microtiter plate reader. Urease activity was calculated by dividing the OD […]

P. stuartii BE2467 = experiment: Growth and viability of P. stuartii in dampening metabolites; type: cell-based, Providencia stuartii
Procedure: (§1) 478 Supplementary Figure 20. Growth of M. morganii, P. stuartii and UTI MRSA incubated in
(§2) 479 dampening metabolites. M. morganii TA43 (A,D,G), P. stuartii BE2467(B,E,H), UTI MRSA
(§3) 480 (C,F,I) were incubated in urease dampening metabolites to assess impact on growth. Bacteria
(§4) 481 were cultured for ~18 hours in LB (Mm and Ps) or BHI (MRSA) broth, then diluted 1:100 into
(§5) 482 fresh broth with (A-C) the highest concentrations of dampening metabolites assessed for urease
(§6) 483 inhibition or (D-F) serial dilutions of D-imidazole lactate. Bacterial suspensions were incubated
(§7) 484 at 37 °C with double-orbital shaking, and OD600 was measured every 15 minutes for 18 hours.
(§8) 485 Error bars represent mean ± standard deviation (SD) from at least 3 technical replicates, and
(§9) 486 graphs are representative of 3 independent biologic experiments. (G-I) Viability of incubated in
(§10) 487 Mm, Ps or MRSA incubated in serial dilutions of D-imidazole lactate. Overnight cultures were
(§11) (1 picture or pasted object on this page, not shown here)
(§12) 488 subcultured to mid log phase, washed in potassium phosphate buffer, and diluted 1:10 in
(§13) 489 potassium phosphate buffer with and without D-imidazole lactate. Samples (n=3) were incubated
(§14) 490 at 37°C with aeration for one hour then plated and enumerated for colony forming units (CFU).

UTI MRSA = experiment: Growth and viability of UTI MRSA in dampening metabolites; type: cell-based, Staphylococcus aureus
Procedure: as §1, §2, §3, §4, §5, §6, §7, §8, §9, §10, §11, §12, §13, §14

[3] = incubation in potassium phosphate, CFU

In the case of `NCCc1c[nH]cn1` [Histamine, histamine dihydrochloride], the “urease-dampening activity against P. mirabilis clinical isolates” value (P. mirabilis urease) is reported as “slightly less potent”.

With `Cl.O=C(O)Cc1cnc[nH]1` [4-imidazole acetate, 2-(1H-Imidazol-5-yl)acetic acid hydrochloride] the “buffering capacity: absorbance (OD562) across NaOH concentrations” value [1] was “consistent reduction in absorbance compared to the control”.

With `O.O=C(O)[C@H](O)Cc1cnc[nH]1` [D-imidazole lactate, D-imidazolelactic acid hydrate] the “relative expression of urease mRNA transcripts” value ([2]; 15-minute incubation, 500 mM urea) was “decreased”, the “pool of rpoA mRNA transcripts” value ([2]; 15 minutes incubation) was “did not affect” and the “urease activity in MRSA” value (UTI MRSA urease) was “least potent”. For the same compound, the “growth of P. stuartii” value (P. stuartii BE2467; LB broth) was “perturbed growth”, the “antimicrobial activity against P. stuartii BE2467” value (P. stuartii BE2467; [3]) was “robust antimicrobial activity” and the “growth of UTI MRSA” value (UTI MRSA; BHI broth) was “perturbed growth”. For the same compound, the “antimicrobial activity against UTI MRSA” value (UTI MRSA; [3]) was “less-pronounced antimicrobial activity” and the “reduction in CFUs of UTI MRSA” value (UTI MRSA; one h incubation in potassium phosphate buffer) was “one log reduction”.
